According to the supplement of paper PMC10307832:

Assays:
Experiment in all cases: relative viability (nuclei count vs DMSO), 5 days (fraction); higher = more cells survive
[1] = compound: CC(C)CCN1c2nc(Nc3cc(F)c(O)c(F)c3)ncc2N(C)C(=O)C1C [BI-D1870] + CC(=O)c1c(C)c2cnc(Nc3ccc(N4CCNCC4)cn3)nc2n(C2CCCC2)c1=O [Palbociclib] (partner 0.5 µM)
Method in brief: (§1)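 Lung cancer cell lines in 1536-well plates were dosed by pin tool the day after seeding, either with one drug alone or with a fixed anchor-drug dose plus five library-drug doses (not always all listed) in √10 steps. After 5 days, cells were fixed and their nuclei stained in one step (final 0.05% Triton X-100, 1% formaldehyde, 1 ug/ml Hoechst), then counted on 4× images. Relative viability is the nuclei count in treated wells divided by that in vehicle wells. Values are medians of duplicate plates.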

[2] = compound: O=c1ncccn1[C@@H]1O[C@H](CO)[C@@H](O)[C@H]1O [Zebularine] + CC(=O)c1c(C)c2cnc(Nc3ccc(N4CCNCC4)cn3)nc2n(C2CCCC2)c1=O [Palbociclib] (partner 0.5 µM)
Method in brief: as §1

[3] = compound: O=c1ncccn1[C@@H]1O[C@H](CO)[C@@H](O)[C@H]1O [Zebularine] + CS(=O)(=O)N1CCN(Cc2cc3nc(-c4cccc5[nH]ncc45)nc(N4CCOCC4)c3s2)CC1 [Pictilisib] (partner 1 µM)
Method in brief: as §1

[4] = compound: O=c1ncccn1[C@@H]1O[C@H](CO)[C@@H](O)[C@H]1O [Zebularine] + O=C(c1cc(Cc2n[nH]c(=O)c3ccccc23)ccc1F)N1CCN(C(=O)C2CC2)CC1 [Olaparib] (partner 8 µM)
Method in brief: as §1

Cell Line | relative viability ([1]; first compound 0.04 µM) | relative viability ([1]; first compound 0.1265 µM) | relative viability ([1]; first compound 0.4 µM) | relative viability ([1]; first compound 1.265 µM) | relative viability ([1]; first compound 4 µM) | relative viability ([2]; first compound 1 µM) | relative viability ([2]; first compound 3.162 µM) | relative viability ([2]; first compound 10 µM) | relative viability ([2]; first compound 31.62 µM) | relative viability ([2]; first compound 100 µM) | relative viability ([3]; first compound 1 µM) | relative viability ([3]; first compound 3.162 µM) | relative viability ([3]; first compound 10 µM) | relative viability ([3]; first compound 31.62 µM) | relative viability ([3]; first compound 100 µM) | relative viability ([4]; first compound 1 µM) | relative viability ([4]; first compound 3.162 µM) | relative viability ([4]; first compound 10 µM) | relative viability ([4]; first compound 31.62 µM) | relative viability ([4]; first compound 100 µM)
NCI-H2347 | 0.385 | 0.426 | 0.407 | 0.453 | 0.4 | 0.471 | 0.411 | 0.414 | 0.471 | 0.338 | 0.8 | 0.529 | 0.439 | 0.558 | 0.462 | 0.565 | 0.566 | 0.531 | 0.385 | 0.358
NCI-H2405 | 0.58 | 0.525 | 0.523 | 0.565 | 0.49 | 0.524 | 0.533 | 0.478 | 0.509 | 0.435 | 0.476 | 0.474 | 0.399 | 0.387 | 0.409 | 0.905 | 0.782 | 0.533 | 0.564 | 0.511
NCI-H3122 | 0.187 | 0.176 | 0.211 | 0.267 | 0.216 | 0.204 | 0.185 | 0.173 | 0.195 | 0.19 | 0.669 | 0.575 | 0.575 | 0.613 | 0.593 | 0.727 | 0.631 | 0.358 | 0.478 | 0.369
PC-3 [JPC-3] | 0.578 | 0.511 | 0.53 | 0.567 | 0.478 | 0.537 | 0.535 | 0.507 | 0.605 | 0.514 | 0.745 | 0.612 | 0.538 | 0.738 | 0.478 | 1.18 | 0.984 | 0.675 | 0.673 | 0.593
PC-14 | 0.56 | 0.468 | 0.474 | 0.356 | 0.138 | 0.627 | 0.417 | 0.175 | 0.103 | 0.118 | 0.767 | 0.574 | 0.151 | 0.111 | 0.0955 | 0.179 | 0.121 | 0.208 | 0.136 | 0.122
RERF-LC-KJ | 1.14 | 0.994 | 1.03 | 1.02 | 0.766 | 1.09 | 1.01 | 0.871 | 1.3 | 1.24 | 0.662 | 0.485 | 0.348 | 0.565 | 0.474 | 0.989 | 0.874 | 0.655 | 1.03 | 0.845
SK-LU-1 | 0.384 | 0.361 | 0.329 | 0.404 | 0.318 | 0.417 | 0.408 | 0.347 | 0.38 | 0.356 | 0.63 | 0.495 | 0.393 | 0.501 | 0.31 | 0.434 | 0.351 | 0.333 | 0.313 | 0.289
SK-MES-1 | 0.342 | 0.318 | 0.314 | 0.285 | 0.266 | 0.346 | 0.359 | 0.341 | 0.328 | 0.272 | 0.375 | 0.399 | 0.294 | 0.346 | 0.203 | 0.947 | 0.722 | 0.479 | 0.393 | 0.268
SW 1573 | 0.435 | 0.347 | 0.332 | 0.25 | 0.17 | 0.451 | 0.435 | – | 0.391 | 0.38 | 0.576 | 0.505 | – | 0.471 | 0.377 | 0.487 | 0.442 | 0.33 | 0.46 | 0.325
